“Also recorded” adds a separate entry of the source. Read-outs that look alike come from different tables or passages of the source.
Experiments:
[1] = parameters: species or system Wistar rats; details: male, Wistar, rat, in vivo
Method: (§1) Experiments were conducted at the Helmholtz-Zentrum Dresden-Rossendorf, Institute of Radiopharmaceutical Cancer Research (approved by Landesdirektion Dresden, number DD24.1-5131/450/16, July 6, 2018). Groups of 5 male Wistar rats each (average body weight, 210 g) were randomized for coinjection of 0.9% NaCl, Arg-Lys solution (200 mg/mL), or paraaminohippurate solution (200 mg/mL). The animals received an intraperitoneal priming dose of 1.0 mL of 0.9% NaCl, 1.0 mL of Arg-Lys, or 1.0 mL of paraaminohippurate solution 10 min before radiotracer injection. The injection solutions for the biodistribution were prepared as mix of [^177Lu]Lu-DOTATOC solution added to 1.5 mL of NaCl, Arg-Lys, or paraaminohippurate solution. The average injected activity ± SD of [^177Lu]Lu-DOTATOC was 4.32 ± 0.51 MBq/kg in 4 animals, whereas 1 rat per group received 149 ± 15 MBq/kg.
As for paraaminohippurate, 500 mg paraaminohippurate were administered per rat; […] thereof via intravenous injection; this by itself already results in an initial plasma concentration far exceeding the saturating 800 mg/L stated in ([16]). […]
Animals were killed 5 and 60 min after radiotracer injection; organs and tissues of interest were extracted, and their mass and activity were determined. Activities were counted in an automatic γ-counter, which was cross-calibrated with a dose calibrator by 3 standard samples. […]

[2] = SPECT/CT quantification of kidney activity after coinjection of radiotracers with NaCl, Arg-Lys or paraaminohippurate; assay type: in vivo, Wistar rats; details: for relative change of kidney uptake with 200 mg/mL paraaminohippurate coinjection in comparison to 0.9% NaCl: imaging, negative = reduction; for effect of paraaminohippurate coinjection on renal uptake (in words): compared with NaCl coinjection
Method: Approximately 10 min later, 50–60 MBq of the ^177Lu-radiolabeled radiopharmaceuticals were injected intravenously in combination with 0.5 mL of 0.9% NaCl, 0.5 mL of paraaminohippurate (200 mg/mL), or 0.5 mL of Arg-Lys (200 mg/mL). At 0.5, 1, 4, 8, and 24 h after injection of the ^177Lu-radiolabeled compounds, SPECT/CT imaging was conducted under isoflurane anesthesia, using Mediso nano-SPECT/CT with a Silver upgrade system (Mediso Kft). VivoQuant version 1.22 software (VivoQuant) was used to determine the volume of interest and to quantify the activity in the kidneys.

[3] = PET quantification of kidney activity of [^68Ga]Ga-PSMA-11 with NaCl or paraaminohippurate; details: for relative change of kidney uptake with 200 mg/mL paraaminohippurate coinjection in comparison to 0.9% NaCl: negative = reduction; for effect of paraaminohippurate coinjection on renal uptake (in words): compared with NaCl coinjection
Method: PET experiments were conducted by CROmed Translational Research Center Ltd. Healthy adult male Wistar rats (3 animals per group) received an intraperitoneal priming dose of 1 mL of 0.9% NaCl, 1 mL of paraaminohippurate (200 mg/mL), or 1 mL of Arg-Lys (200 mg/mL), followed by 15–30 MBq of [^68Ga]Ga-PSMA-11 once intravenously in combination with 0.9% NaCl, paraaminohippurate, or Arg-Lys. PET examinations were conducted on an upgraded small-animal PET PRIMATE P4 scanner (Concorde Microsystems Inc.) at 5 min and 0.5, 1, 2, and 4 h after injection.

[4] = Tolerability of paraaminohippurate coadministration; assay type: in vivo; details: rats, 200 mg/mL solution, intraperitoneal priming plus intravenous coinjection
Method: as §1, with “MBq/kg. […]” for “MBq/kg.”
Approximately 10 min later, 50–60 MBq of the ^177Lu-radiolabeled radiopharmaceuticals were injected intravenously in combination with 0.5 mL of 0.9% NaCl, 0.5 mL of paraaminohippurate (200 mg/mL), or 0.5 mL of Arg-Lys (200 mg/mL). […] VivoQuant version 1.22 software (VivoQuant) was used to determine the volume of interest and to quantify the activity in the kidneys.

[5] = glomerular filtration and proximal tubular secretion; cited from earlier work
[6] = parameters: method as in PMID 38637142; details: 12 patients treated with [^177Lu]Lu-DOTATOC; cited from earlier work
[7] = male, Wistar, rat, in vivo, %ID/g of kidney tissue
[8] = PAH coinjection in comparison to NaCl
[9] = independent of the coinjected compound
[10] = NaCl coinjection, AUC within first hour after injection
[11] = PAH coinjection, AUC within first hour after injection
[12] = paraaminohippurate vs NaCl coinjection

**Q.** Which kidney uptake ([1]; 5 min) does the source give for `C[C@@H](O)[C@@H]1NC(=O)[C@H](CCCCN)NC(=O)[C@@H](Cc2c[nH]c3ccccc23)NC(=O)[C@H](Cc2ccc(O)cc2)NC(=O)[C@@H](NC(=O)[C@@H](Cc2ccccc2)NC(=O)CN2CCN(CC(=O)O)CCN(CC(=O)O)CCN(CC(=O)O)CC2)CSSC[C@@H](C(=O)N[C@H](CO)[C@@H](C)O)NC1=O` [[^177Lu]Lu-DOTATOC, metal not drawn] here?
**A.** 2.93 ± 0.42 %ID/g

**Q.** What about the kidney uptake ([1]; 1 h) of the same compound?
**A.** 2.16 ± 0.31 %ID/g

**Q.** And the “%ID/g of kidney tissue” value ([2]; male, Wistar, rat, in vivo, 0.5 h)?
**A.** 13.3 (8.4) %ID/g

**Q.** And the “%ID/g of kidney tissue” value ([2]; male, Wistar, rat, in vivo, 8 h)?
**A.** 2.7 (0.0) %ID/g

**Q.** What about the tissue uptake at 1 h [2, 7] of the same compound?
**A.** 12.2 %ID/g

**Q.** And the tissue uptake at 4 h [2, 7]?
**A.** 2.7 %ID/g

**Q.** And the tissue uptake at 24 h [2, 7]?
**A.** 2.4 %ID/g

**Q.** And the “kidney AUC0–24 h, Difference” value ([2]; rat, in vivo)?
**A.** −51%

**Q.** What about the “kidney AUC0–24 h, NaCl” value ([2]; rat, in vivo) of the same compound?
**A.** 87.0 %ID/g*h

**Q.** And the “kidney AUC0–24 h, PAH” value ([2]; rat, in vivo)?
**A.** 43.0 %ID/g*h

**Q.** And the “time of peak / maximum kidney activity after injection” value ([2]; rat, in vivo)?
**A.** 0.5 h

**Q.** Which results are given for [^177Lu]Lu-DOTATATE?
**A.** relative change of kidney uptake with 200 mg/mL paraaminohippurate coinjection in comparison to 0.9% NaCl ([2]; 0.5 h): −80%; relative change of kidney uptake with 200 mg/mL paraaminohippurate coinjection in comparison to 0.9% NaCl ([2]; 1 h): −83%; relative change of kidney uptake with 200 mg/mL paraaminohippurate coinjection in comparison to 0.9% NaCl ([2]; 4 h): −56%; relative change of kidney uptake with 200 mg/mL paraaminohippurate coinjection in comparison to 0.9% NaCl ([2]; 8 h): −49%; relative change of kidney uptake with 200 mg/mL paraaminohippurate coinjection in comparison to 0.9% NaCl ([2]; 24 h): −46%; kidney AUC0–24 h, NaCl ([2]; NaCl coinjection, AUC within 24 h after injection): 113.7 %ID/g*h; kidney AUC0–24 h, Difference [2, 8]: −60%; kidney AUC0–24 h, PAH ([2]; PAH coinjection, AUC within 24 h after injection): 45.4 %ID/g*h; effect of paraaminohippurate coinjection on renal uptake (in words) [2]: significantly lower; also recorded: markedly diminished; also recorded: significantly reduced; time of peak / maximum kidney activity after injection [2, 9]: 0.5 h

**Q.** Which results are given for `O=C([O-])CN(CCN(CC(=O)[O-])Cc1cc(CCC(=O)NCCCCCC(=O)NCCCC[C@H](NC(=O)N[C@@H](CCC(=O)O)C(=O)O)C(=O)O)ccc1[O-])Cc1cc(CCC(=O)O)ccc1[O-].[68Ga+3].[OH3+]` [[^68Ga]Ga-PSMA-11]?
**A.** relative change of kidney uptake with 200 mg/mL paraaminohippurate coinjection in comparison to 0.9% NaCl ([3]; 5 min): −21%; relative change of kidney uptake with 200 mg/mL paraaminohippurate coinjection in comparison to 0.9% NaCl ([3]; 0.5 h): −23%; relative change of kidney uptake with 200 mg/mL paraaminohippurate coinjection in comparison to 0.9% NaCl ([3]; 1 h): −37%; relative change of kidney uptake with 200 mg/mL paraaminohippurate coinjection in comparison to 0.9% NaCl ([3]; 2 h): −5%; relative change of kidney uptake with 200 mg/mL paraaminohippurate coinjection in comparison to 0.9% NaCl ([3]; 4 h): +15%; kidney AUC0–1 h, NaCl [3, 10]: 45.9 %ID/g*h; kidney AUC0–1 h, Difference [3, 8]: −19%; kidney AUC0–1 h, PAH [3, 11]: 37.1 %ID/g*h; effect of paraaminohippurate coinjection on renal uptake (in words) [3]: To a lesser extent, paraaminohippurate-mediated nephroprotection was observed; effect of paraaminohippurate coinjection on renal uptake (in words) ([3]; listed as PSMA-11): reduced; time of peak kidney activity after injection [3, 9]: 0.5 h; reduction of kidney AUC within the first hour after injection [3, 12]: 19%

**Q.** Which results are given for `Nc1ccc(C(=O)NCC(=O)[O-])cc1.[Na+]` [paraaminohippurate, sodium paraaminohippurate]?
**A.** tolerability / toxicity of coadministration [4]: well tolerated, and no immediate or delayed toxicity was observed; tolerability / toxicity of coadministration ([4]; listed as Paraaminohippurate): well tolerated, with no toxicity observed; fraction filtered by the kidney from the plasma in a single pass-through [5]: more than 90%; kidney uptake of the radiolabeled compound versus Arg-Lys solution [6]: comparable; tolerability in patients [6]: well tolerated

**Q.** For `O=C([O-])CC[C@H](NC(=O)N[C@@H](CCCCNC(=O)CCCCCCC(=O)NCCCC[C@@H](NC(=O)[C@@H](Cc1ccccc1)NC(=O)[C@@H](Cc1ccc(O)c(I)c1)NC(=O)CC[C@H](C(=O)[O-])N1CCN(CC(=O)[O-])CCN(CC(=O)[O-])CCN(CC(=O)[O-])CC1)C(=O)[O-])C(=O)[O-])C(=O)[O-].[177Lu+3].[H+].[H+].[H+].[H+].[H+]` [[^177Lu]Lu-PSMA-I&T], which “relative change of kidney uptake with 200 mg/mL paraaminohippurate coinjection in comparison to 0.9% NaCl” value (“relative change of kidney uptake … to 0.9% NaCl” below) ([2]; 0.5 h) is on record?
**A.** −18%

**Q.** What about the “relative change of kidney uptake … to 0.9% NaCl” value ([2]; 1 h) of the same compound?
**A.** −22%

**Q.** And the “relative change of kidney uptake … to 0.9% NaCl” value ([2]; 4 h)?
**A.** −61%

**Q.** What about the “kidney AUC0–1 h, NaCl” value [2, 10] of the same compound?
**A.** 64.7 %ID/g*h

**Q.** What about the “kidney AUC0–1 h, Difference” value [2, 8] of the same compound?
**A.** −34%

**Q.** And the “kidney AUC0–1 h, PAH” value [2, 11]?
**A.** 42.8 %ID/g*h

**Q.** And the “effect of paraaminohippurate coinjection on renal uptake (in words)” value [2]?
**A.** To a lesser extent, paraaminohippurate-mediated nephroprotection was observed

**Q.** And the “effect of paraaminohippurate coinjection on renal uptake (in words)” value ([2]; listed as PSMA-I&T)?
**A.** reduced

**Q.** What about the “time of peak / maximum kidney activity after injection” value [2, 9] of the same compound?
**A.** 0.5 h

**Q.** What about the “reduction of kidney AUC within the first hour after injection” value [2, 12] of the same compound?
**A.** 34%
